# Measured values published in PubChem BioAssay (NCI).
#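 Growth conditions: 96-well plates. Treatment: test compound, 48 hours, 5 concentrations. Analysis: linear interpolation between bracketing concentrations; unreached endpoints set to highest concentration. Abbreviation: GI50, concentration required for 50% inhibition of growth. TGI: concentration producing complete growth inhibition.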
# What was measured:
# Assay in all cases: NCI-60 cell line screen, 48 h
# SK-MEL-2 melanoma = tested on: SK-MEL-2 melanoma
# HOP-92 NSCLC = tested on: HOP-92 NSCLC
# HCC-2998 colon = tested on: HCC-2998 colon
# SF-539 CNS = tested on: SF-539 CNS
# NCI-H460 lung = tested on: NCI-H460 lung
# HCT-15 colon = tested on: HCT-15 colon
# SF-295 CNS = tested on: SF-295 CNS
# OVCAR-3 ovarian = tested on: OVCAR-3 ovarian
# RPMI-8226 leukemia = tested on: RPMI-8226 leukemia
# MDA-MB-435 = tested on: MDA-MB-435
# CCRF-CEM leukemia = tested on: CCRF-CEM leukemia
# SK-MEL-5 melanoma = tested on: SK-MEL-5 melanoma
# M14 melanoma = tested on: M14 melanoma
# IGROV1 ovarian = tested on: IGROV1 ovarian
# MDA-MB-468 breast = tested on: MDA-MB-468 breast
# OVCAR-5 ovarian = tested on: OVCAR-5 ovarian
# A549 NSCLC = tested on: A549 NSCLC
# OVCAR-8 ovarian = tested on: OVCAR-8 ovarian
# LOX IMVI melanoma = tested on: LOX IMVI melanoma
# TK-10 renal = tested on: TK-10 renal
# DU-145 prostate = tested on: DU-145 prostate
# NCI-H522 lung = tested on: NCI-H522 lung
# SW-620 colon = tested on: SW-620 colon
# UACC-62 melanoma = tested on: UACC-62 melanoma
# MOLT-4 leukemia = tested on: MOLT-4 leukemia
# HL-60(TB) leukemia = tested on: HL-60(TB) leukemia
# A498 renal = tested on: A498 renal
# K-562 leukemia = tested on: K-562 leukemia
# MCF7 breast = tested on: MCF7 breast
# EKVX NSCLC = tested on: EKVX NSCLC
# MDA-MB-231 breast = tested on: MDA-MB-231 breast
# PC-3 prostate = tested on: PC-3 prostate
# KM12 colon = tested on: KM12 colon
# NCI-H226 lung = tested on: NCI-H226 lung
# SNB-75 CNS = tested on: SNB-75 CNS
# SK-MEL-28 melanoma = tested on: SK-MEL-28 melanoma
# HCT-116 colon = tested on: HCT-116 colon
# CAKI-1 renal = tested on: CAKI-1 renal
# COLO 205 colon = tested on: COLO 205 colon
# HOP-62 NSCLC = tested on: HOP-62 NSCLC
# 786-0 renal = tested on: 786-0 renal
# HT29 colon = tested on: HT29 colon
# ACHN renal = tested on: ACHN renal
# HS 578T breast = tested on: HS 578T breast
# SK-OV-3 ovarian = tested on: SK-OV-3 ovarian
# OVCAR-4 ovarian = tested on: OVCAR-4 ovarian
# SF-268 CNS = tested on: SF-268 CNS
# NCI-H23 lung = tested on: NCI-H23 lung
# RXF 393 renal = tested on: RXF 393 renal
# MALME-3M melanoma = tested on: MALME-3M melanoma
# T-47D breast = tested on: T-47D breast
# U251 CNS = tested on: U251 CNS
# BT-549 breast = tested on: BT-549 breast
# UO-31 renal = tested on: UO-31 renal
# UACC-257 melanoma = tested on: UACC-257 melanoma
# SNB-19 CNS = tested on: SNB-19 CNS
# SR leukemia = tested on: SR leukemia
# SN12C renal = tested on: SN12C renal
compound,measurement,setting,value
COc1cc(/C=N/NC(=O)c2ccc3nc(-c4ccc(Cl)cc4)[nH]c3c2)cc(OC)c1OC,GI50,SK-MEL-2 melanoma,11 µM
same,TGI,SK-MEL-2 melanoma,25 µM
same,GI50,HOP-92 NSCLC,5.95 µM
same,TGI,HOP-92 NSCLC,23.2 µM
same,GI50,HCC-2998 colon,11.1 µM
same,TGI,HCC-2998 colon,29.3 µM
same,GI50,SF-539 CNS,2.02 µM
same,TGI,SF-539 CNS,6.98 µM
same,GI50,NCI-H460 lung,3.19 µM
same,TGI,NCI-H460 lung,10.2 µM
same,GI50,HCT-15 colon,73 µM
same,TGI,HCT-15 colon,> 100 µM
same,GI50,SF-295 CNS,4.18 µM
same,TGI,SF-295 CNS,15.9 µM
same,GI50,OVCAR-3 ovarian,2.28 µM
same,TGI,OVCAR-3 ovarian,4.88 µM
same,GI50,RPMI-8226 leukemia,3.21 µM
same,TGI,RPMI-8226 leukemia,> 100 µM
same,GI50,MDA-MB-435,4.13 µM
same,TGI,MDA-MB-435,15.3 µM
same,GI50,CCRF-CEM leukemia,6.27 µM
same,TGI,CCRF-CEM leukemia,> 100 µM
same,GI50,SK-MEL-5 melanoma,2.83 µM
same,TGI,SK-MEL-5 melanoma,12.2 µM
same,GI50,M14 melanoma,3.77 µM
same,TGI,M14 melanoma,21.1 µM
same,GI50,IGROV1 ovarian,11 µM
same,TGI,IGROV1 ovarian,30.8 µM
same,GI50,MDA-MB-468 breast,3.27 µM
same,TGI,MDA-MB-468 breast,10.1 µM
same,GI50,OVCAR-5 ovarian,15.6 µM
same,TGI,OVCAR-5 ovarian,41.2 µM
same,GI50,A549 NSCLC,7.55 µM
same,TGI,A549 NSCLC,38.4 µM
same,GI50,OVCAR-8 ovarian,3.87 µM
same,TGI,OVCAR-8 ovarian,18.9 µM
same,GI50,LOX IMVI melanoma,4.67 µM
same,TGI,LOX IMVI melanoma,16.1 µM
same,GI50,TK-10 renal,28.8 µM
same,TGI,TK-10 renal,> 100 µM
same,GI50,DU-145 prostate,6.77 µM
same,TGI,DU-145 prostate,20.9 µM
same,GI50,NCI-H522 lung,4.9 µM
same,TGI,NCI-H522 lung,20.9 µM
same,GI50,SW-620 colon,4.4 µM
same,TGI,SW-620 colon,17.4 µM
same,GI50,UACC-62 melanoma,1.24 µM
same,TGI,UACC-62 melanoma,12.2 µM
same,GI50,MOLT-4 leukemia,3.58 µM
same,TGI,MOLT-4 leukemia,28.1 µM
same,GI50,HL-60(TB) leukemia,3.9 µM
same,TGI,HL-60(TB) leukemia,60.4 µM
same,GI50,A498 renal,26.4 µM
same,TGI,A498 renal,77.6 µM
same,GI50,K-562 leukemia,1.96 µM
same,TGI,K-562 leukemia,6.33 µM
same,GI50,MCF7 breast,0.663 µM
same,TGI,MCF7 breast,12.5 µM
same,GI50,EKVX NSCLC,14.8 µM
same,TGI,EKVX NSCLC,97.2 µM
same,GI50,MDA-MB-231 breast,3.39 µM
same,TGI,MDA-MB-231 breast,11.1 µM
same,GI50,PC-3 prostate,5.73 µM
same,TGI,PC-3 prostate,> 100 µM
same,GI50,KM12 colon,4.5 µM
same,TGI,KM12 colon,17.9 µM
same,GI50,NCI-H226 lung,1.31 µM
same,TGI,NCI-H226 lung,16.1 µM
same,GI50,SNB-75 CNS,1.28 µM
same,TGI,SNB-75 CNS,6.68 µM
same,GI50,SK-MEL-28 melanoma,1.83 µM
same,TGI,SK-MEL-28 melanoma,6.78 µM
same,GI50,HCT-116 colon,3.26 µM
same,TGI,HCT-116 colon,10.6 µM
same,GI50,CAKI-1 renal,11.2 µM
same,TGI,CAKI-1 renal,30.8 µM
same,GI50,COLO 205 colon,2.84 µM
same,TGI,COLO 205 colon,24.4 µM
same,GI50,HOP-62 NSCLC,4.68 µM
same,TGI,HOP-62 NSCLC,16.4 µM
same,GI50,786-0 renal,4.88 µM
same,TGI,786-0 renal,18.7 µM
same,GI50,HT29 colon,2.98 µM
same,TGI,HT29 colon,15.5 µM
same,GI50,ACHN renal,7.93 µM
same,TGI,ACHN renal,> 100 µM
same,GI50,HS 578T breast,2.58 µM
same,TGI,HS 578T breast,7 µM
same,GI50,SK-OV-3 ovarian,15 µM
same,TGI,SK-OV-3 ovarian,38.1 µM
same,GI50,OVCAR-4 ovarian,2.35 µM
same,TGI,OVCAR-4 ovarian,7.29 µM
same,GI50,SF-268 CNS,4.4 µM
same,TGI,SF-268 CNS,20.5 µM
same,GI50,NCI-H23 lung,4.72 µM
same,TGI,NCI-H23 lung,18.8 µM
same,GI50,RXF 393 renal,2.22 µM
same,TGI,RXF 393 renal,9.02 µM
same,GI50,MALME-3M melanoma,1.12 µM
same,TGI,MALME-3M melanoma,3.36 µM
same,GI50,T-47D breast,3.48 µM
same,TGI,T-47D breast,21 µM
same,GI50,U251 CNS,2.59 µM
same,TGI,U251 CNS,5.9 µM
same,GI50,BT-549 breast,2.69 µM
same,TGI,BT-549 breast,9.27 µM
same,GI50,UO-31 renal,> 100 µM
same,TGI,UO-31 renal,> 100 µM
same,GI50,UACC-257 melanoma,4.67 µM
same,TGI,UACC-257 melanoma,18.8 µM
same,GI50,SNB-19 CNS,3.42 µM
same,TGI,SNB-19 CNS,10.5 µM
same,GI50,SR leukemia,3.76 µM
same,TGI,SR leukemia,19.1 µM
same,GI50,SN12C renal,3.22 µM
same,TGI,SN12C renal,11 µM
